The term Kd denotes the equilibrium constant for the complex coming apart. A high value points to a looser complex.

One test addresses T1, hSiglec-1 (Homo sapiens, UniProt Q9BZZ2).
T1 construct: gene SIGLEC1; monomeric Siglec-1 fragment from CHO Lec1 cells
The test is described as follows: direct ESI native mass spectrometry titration. Format: binding.

The target in test [1] is T2, mSiglec-1 (Mus musculus, UniProt Q62230).
T2 construct: gene Siglec1; monomeric Siglec-1 fragment from CHO Lec1 cells
T2 sequence (Q62230 20-136 limits assumed): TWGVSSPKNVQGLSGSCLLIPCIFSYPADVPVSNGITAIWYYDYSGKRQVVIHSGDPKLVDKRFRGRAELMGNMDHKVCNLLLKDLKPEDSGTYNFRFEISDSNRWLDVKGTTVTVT
Nature of the test: direct ESI native mass spectrometry titration. Format: binding.

Test [2] has as its target T2, mSiglec-1. The test is described as follows: direct ESI native mass spectrometry titration (no binding in liposome bead assay or ELISA). (An ELISA detects its analyte on a solid surface through an enzyme-linked reagent.)

T1 sequence (Q9BZZ2 20-136 limits assumed): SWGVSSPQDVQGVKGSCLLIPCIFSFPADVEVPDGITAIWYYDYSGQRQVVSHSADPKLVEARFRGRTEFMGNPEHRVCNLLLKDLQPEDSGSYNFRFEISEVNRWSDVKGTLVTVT

Turning to GM1b oligosaccharide, the values for the Kd on hSiglec-1 and at mSiglec-1 [1] were 890 µM and 1200 µM, respectively.
As to GM1a oligosaccharide, the Kd on hSiglec-1 was found to be 1500 µM; on mSiglec-1 [2], 2000 µM.

Values taken from article PMC11294694, “Dissecting the abilities of murine Siglecs to interact with gangliosides [drawing 1]” (The Journal of Biological Chemistry, 2024).
